Assay results reported in patent US20200288710A1, “SUBSTITUTED SULPHONAMIDES FOR CONTROLLING ANIMAL PESTS” (BAYER CROPSCIENCE AKTIENGESELLSCHAFT, priority 2016, published 2020).

What follows are molecules tested on Myzus persicae (assay: Myzus persicae spray test (Chinese cabbage leaf discs)). Settings: foliar, 120 h, 500 g/ha, after 5-6 days, read-out: efficacy.
Assay type: in vivo
Experimental: Myzus persicae—Spray Test Solvent: 78 parts by weight of acetone • • 1.5 parts by weight of dimethylformamide Emulsifier: alkylaryl polyglycol ether To produce a suitable preparation of active compound, 1 part by weight of active compound is dissolved using the specified parts by weight of solvent and made up with water containing an emulsifier concentration of 1000 ppm until the desired concentration is attained. To produce further test concentrations, the formulation is diluted with emulsifier-containing water. Discs of Chinese cabbage leaves (Brassica pekinensis) infested by all stages of the green peach aphid (Myzus persicae) are sprayed with an active compound preparation of the desired concentration. After 5-6 days, the efficacy in % is determined. 100% means that all the aphids have been killed; 0% means that no aphids have been killed.

Point of comparison: `CCc1ccc(OC)c(S(=O)(=O)NC(=O)c2cn(C)c(-c3c(F)cccc3F)n2)c1` [Example 391], pest or weed control at 500 g/ha 90%. Against it:
- Cc1nc(Cl)sc1S(=O)(=O)NC(=O)c1cn(C)c(-c2c(F)cccc2F)n1 [Example 346] — the same, 90%
- CCc1[nH]c(-c2cccc(OC)c2)nc1C(=O)NS(=O)(=O)c1ccccc1Cl [Example 122] — the same, 90%
- Cc1ccccc1S(=O)(=O)NC(=O)c1cn(C)c(-c2ccccn2)n1 [Example 493] — higher, 100%
- Cn1cc(C(=O)NS(=O)(=O)c2c(F)cccc2F)nc1-c1c(Cl)cccc1Cl [Example 24] — the same, 90%
- Cn1cc(C(=O)NS(=O)(=O)c2ccc(C#N)cc2)nc1-c1ccccc1Cl [Example 168] — the same, 90%
- COc1ccc(Cl)c(S(=O)(=O)NC(=O)c2cnc(-c3cc(Cl)cc(Cl)c3)[nH]2)c1 [Example 224] — the same, 90%
- Cn1cc(C(=O)NS(=O)(=O)c2ccccc2C(F)(F)F)nc1-c1c(F)cc(F)cc1F [Example 5] — the same, 90%
- COc1ccccc1S(=O)(=O)NC(=O)c1cn(C)c(-c2cc(F)ccc2F)n1 [Example 526] — the same, 90%
- Cn1cc(C(=O)NS(=O)(=O)CC(F)(F)F)nc1-c1c(F)cccc1F [Example 84] — higher, 100%
- COc1ccc(OC)c(S(=O)(=O)NC(=O)c2cn(C)c(-c3ncccc3F)n2)c1 [Example 608] — higher, 100%
- Cn1cc(C(=O)NS(=O)(=O)c2cc(C(F)(F)F)ccc2C(F)(F)F)nc1-c1c(F)cccc1F [Example 400] — the same, 90%
- CS(=O)(=O)NC(=O)c1cn(-c2cccc(Cl)c2)c(-c2ccccc2Cl)n1 [Example 72] — the same, 90%
- Cn1cc(C(=O)NS(C)(=O)=O)nc1-c1c(Cl)cccc1Cl [Example 83] — the same, 90%
- Cn1cc(C(=O)NS(=O)(=O)c2ccccc2)nc1-c1ccccc1Cl [Example 229] — higher, 100%
- Cc1ccccc1S(=O)(=O)NC(=O)c1cn(C)c(-c2cccnc2)n1 [Example 488] — the same, 90%
- Cc1[nH]c(C(=O)NS(=O)(=O)c2ccccc2Cl)nc1-c1c(F)cccc1F [Example 145] — the same, 90%
- Cn1cc(C(=O)NS(=O)(=O)CC(F)(F)F)nc1-c1c(Cl)cccc1Cl [Example 80] — the same, 90%
- Cn1cc(C(=O)NS(=O)(=O)c2cc(F)ccc2F)nc1-c1c(F)cccc1F [Example 455] — the same, 90%
- Cn1cc(C(=O)NS(=O)(=O)CC(F)(F)F)nc1-c1ccccc1F [Example 90] — higher, 100%
- CCc1[nH]c(-c2ccccc2Cl)nc1C(=O)NS(=O)(=O)C(C)C [Example 121] — the same, 90%
- CCS(=O)(=O)NC(=O)c1cn(C)c(-c2c(F)cccc2F)n1 [Example 86] — higher, 100%
- Cn1cc(C(=O)NS(=O)(=O)c2cc(Cl)cc(Cl)c2)nc1-c1ccccc1Cl [Example 166] — the same, 90%
- Cn1cc(C(=O)NS(=O)(=O)c2cccc(C#N)c2)nc1-c1ccccc1Cl [Example 167] — the same, 90%
- CCOc1ccccc1S(=O)(=O)NC(=O)c1cn(C)c(-c2c(F)cccc2Cl)n1 [Example 154] — the same, 90%
- Cn1cc(C(=O)NS(=O)(=O)c2cccs2)nc1-c1c(F)cccc1F [Example 349] — higher, 100%
- Cn1cc(C(=O)NS(C)(=O)=O)nc1-c1ccccc1Cl [Example 65] — the same, 90%
- Cc1ccccc1S(=O)(=O)NC(=O)c1cn(C)c(-c2ccccc2OC(F)(F)F)n1 [Example 458] — the same, 90%
- COc1cccc(C(F)(F)F)c1S(=O)(=O)NC(=O)c1cn(C)c(-c2c(F)cccc2F)n1 [Example 374] — higher, 100%
- COc1ccc(Cl)c(S(=O)(=O)NC(=O)c2cnc(-c3c(F)cccc3F)n2C)c1 [Example 160] — the same, 90%

The molecules below were run on Myzus persicae (assay: Myzus persicae oral test). Settings: 120 h, 20 ppm, oral uptake, after 5 days, read-out: efficacy.
Assay type: in vivo
Experimental: Myzus persicae—Oral Test Solvent: 100 parts by weight of acetone To produce a suitable preparation of active compound, 1 part by weight of active compound is dissolved using the specified parts by weight of solvent and made up with water until the desired concentration is attained. 50 μl of the active compound preparation are transferred into microtitre plates and made up to a final volume of 200 μl with 150 μl of IPL41 insect medium (33%+15% sugar). Subsequently, the plates are sealed with parafilm, which a mixed population of green peach aphids (Myzus persicae) within a second microtitre plate is able to puncture and imbibe the solution through it. After 5 days, the efficacy in % is determined. 100% means that all the aphids have been killed; 0% means that no aphids have been killed.

Point of comparison: `Cc1[nH]c(-c2cccc(C(C)C)c2)nc1C(=O)NS(=O)(=O)C(C)C` [Example 620], pest or weed control at 20 ppm 90%. Against it:
- Cn1cc(C(=O)NS(=O)(=O)c2cc(C#N)ccc2Cl)nc1-c1c(F)cccc1F [Example 452] — higher, 100%
- CCc1c(C(=O)NS(=O)(=O)c2ccccc2Br)nc(-c2c(F)cccc2F)n1C [Example 198] — higher, 100%
- COc1ccc(Cl)c(S(=O)(=O)NC(=O)c2nc(-c3ccc(Cl)c(Cl)c3)[nH]c2C)c1 [Example 615] — higher, 100%
- CCc1[nH]c(-c2ccc(F)cc2F)nc1C(=O)NS(=O)(=O)c1ccccc1C [Example 245] — higher, 100%
- Cc1ccc(F)cc1S(=O)(=O)NC(=O)c1cc(C)n(-c2cccc(Cl)c2Cl)n1 [Example 305] — the same, 90%
- CCc1[nH]c(-c2cccc(Cl)c2)nc1C(=O)NS(=O)(=O)C(C)C [Example 131] — the same, 90%
- COc1ccc(Cl)c(S(=O)(=O)NC(=O)c2nc(-c3ccccc3Cl)c(C)[nH]2)c1 [Example 201] — higher, 100%
- CCc1[nH]c(-c2c(C)cccc2C)nc1C(=O)NS(=O)(=O)c1ccccc1Cl [Example 208] — the same, 90%
- Cc1cccc(OS(C)(=O)=O)c1S(=O)(=O)NC(=O)c1cn(C)c(-c2c(F)cccc2F)n1 [Example 368] — the same, 90%
- CC(C)c1cccc(-c2nc(C(=O)NS(=O)(=O)c3ccccc3Cl)c(C(C)C)[nH]2)c1 [Example 612] — higher, 100%
- CCc1[nH]c(-c2cccc(C(F)(F)F)c2)nc1C(=O)NS(=O)(=O)C(C)C [Example 248] — higher, 100%
- CSc1ccccc1-c1nc(C(=O)NS(=O)(=O)c2ccccc2C)cn1C [Example 214] — higher, 100%
- COc1ccccc1S(=O)(=O)NC(=O)c1cn(C)c(-c2ccccc2SC)n1 [Example 215] — the same, 90%
- CCc1[nH]c(-c2cccc(Br)c2)nc1C(=O)NS(=O)(=O)c1ccccc1Cl [Example 136] — the same, 90%
- Cc1cccc(Cl)c1S(=O)(=O)NC(=O)c1cc(C)n(-c2cccc(Cl)c2Cl)n1 [Example 306] — higher, 100%
- Cc1nn(C)c(Cl)c1S(=O)(=O)NC(=O)c1cn(C)c(-c2c(F)cccc2F)n1 [Example 348] — higher, 100%
- O=C(NS(=O)(=O)c1ccccc1Cl)c1c[nH]c(-c2c(F)cccc2F)n1 [Example 412] — the same, 90%
- CSc1ccccc1-c1nc(C(=O)NS(=O)(=O)c2ccccc2Cl)cn1C [Example 213] — higher, 100%
- CCc1[nH]c(-c2ccc(Cl)cc2)nc1C(=O)NS(=O)(=O)C(C)C [Example 601] — the same, 90%
- CCc1[nH]c(-c2cc(C)cc(C)c2)nc1C(=O)NS(=O)(=O)c1ccccc1C [Example 470] — higher, 100%
- CCc1[nH]c(-c2cccc(C(F)(F)F)c2)nc1C(=O)NS(=O)(=O)c1ccccc1Cl [Example 247] — higher, 100%
- COc1ccc(OC)c(S(=O)(=O)NC(=O)c2cn(C)c(-c3ccccc3S(C)(=O)=O)n2)c1 [Example 509] — higher, 100%
- Cc1cc(C(=O)NS(=O)(=O)c2ccc(Cl)s2)nn1-c1cc(Cl)ccc1Cl [Example 299] — the same, 90%
- COc1ccc(Br)cc1S(=O)(=O)NC(=O)c1nc(-c2c(F)cccc2F)n(C)n1 [Example 327] — the same, 90%
- Cn1cc(C(=O)NS(=O)(=O)c2ccccc2N)nc1-c1ccccc1Cl [Example 132] — higher, 100%
- Cc1cc(C(=O)NS(=O)(=O)c2ccccc2Br)nn1-c1cccc(Cl)c1Cl [Example 302] — higher, 100%
- Cn1cc(C(=O)NS(=O)(=O)c2cnc(Cl)s2)nc1-c1c(F)cccc1F [Example 345] — the same, 90%
- COc1ccccc1S(=O)(=O)NC(=O)c1cn(C)c(-c2csc3ccccc23)n1 [Example 531] — the same, 90%
- CCCOc1ccc(Cl)c(S(=O)(=O)NC(=O)c2cn(C)c(-c3c(F)cccc3F)n2)c1 [Example 180] — higher, 100%
- Cc1[nH]c(-c2cccc(Cl)c2)nc1C(=O)NS(=O)(=O)C(C)C [Example 236] — the same, 90%
- COc1ccc(Cl)c(S(=O)(=O)NC(=O)c2nc(-c3c(F)cccc3F)[nH]c2C)c1 [Example 191] — the same, 90%
- Cc1ccccc1S(=O)(=O)NC(=O)c1cnc(-c2c(F)cccc2F)n1C [Example 163] — higher, 100%
- Cc1[nH]c(C(=O)NS(=O)(=O)c2ccccc2Cl)nc1-c1ccccc1Cl [Example 418] — the same, 90%
- CCc1[nH]c(-c2cccc(Cl)c2)nc1C(=O)NS(=O)(=O)c1cc(OC)ccc1Cl [Example 130] — the same, 90%
- COc1ccc(Cl)c(S(=O)(=O)NC(=O)c2nc(-c3cccc(Cl)c3)[nH]c2C)c1 [Example 619] — higher, 100%
- CCc1[nH]c(-c2cc(Cl)cc(Cl)c2)nc1C(=O)NS(=O)(=O)c1ccccc1OC [Example 137] — the same, 90%
- Cc1[nH]c(-c2cccc(C(C)C)c2)nc1C(=O)NS(=O)(=O)c1ccccc1Cl [Example 617] — higher, 100%
